Assay results from US11840686B2, “Modulation of prekallikrein (PKK) expression” (Ionis Pharmaceuticals, Inc., priority 2013, dated 2023).
Strand notation (5' to 3'): a small letter for the sugar, then the base; units joined by * are phosphorothioate-linked, units joined directly phosphodiester-linked; [ ] holds rarer units or linkages, { } end groups; capitals alone tell only the bases. e = 2'-O-(2-methoxyethyl) (MOE); k = constrained ethyl (cEt); [5mC] = 5-methylcytosine; d = 2'-deoxy (DNA)

Test system: human PKK mRNA
Assay: Antisense inhibition of human PKK mRNA in HepaRG cells, 1,000 nM, MOE/deoxy/cEt oligonucleotides (Example 3)
Type: cell-based
Method in brief: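 HepaRG cells at 20,000 per well electroporated with 1,000 nM 16-mer MOE/cEt/deoxy gapmers (phosphorothioate, 5-methylcytosine). After about 24 h, PKK mRNA measured by qRT-PCR with primer probe set RTS3454, normalized to RIBOGREEN total RNA. Reported as percent inhibition versus untreated cells.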

[1] = Table 21 experiment, HepaRG cells, electroporation with 1,000 nM antisense oligonucleotide, approx. 24 hours, PKK mRNA by RT-PCR (RTS3454), relative to untreated control cells
[2] = HepaRG cells, 1,000 nM antisense oligonucleotide, Table 29
[3] = Table 28, HepaRG cells, 1,000 nM antisense oligonucleotide, human PKK mRNA
[4] = HepaRG cells, electroporation with 1,000 nM antisense oligonucleotide, approximately 24 hours, primer probe set RTS3454, relative to untreated control cells, experiment of Table 24
[5] = PKK mRNA, HepaRG cells, 1,000 nM antisense oligonucleotide, Table 31
[6] = HepaRG cells, electroporation with 1,000 nM antisense oligonucleotide, approximately 24 hours, primer probe set RTS3454, relative to untreated control cells, experiment of Table 23
[7] = Table 20, HepaRG cells, electroporation with 1,000 nM antisense oligonucleotide, approximately 24 hours, PKK mRNA by RT-PCR (RTS3454), relative to untreated control cells
[8] = Table 22 experiment, HepaRG cells, electroporation with 1,000 nM antisense oligonucleotide, approx. 24 hours, PKK mRNA by RT-PCR (RTS3454), relative to untreated control cells
[9] = Table 27, HepaRG cells, 1,000 nM antisense oligonucleotide, human PKK mRNA
[10] = HepaRG cells, electroporation with 1,000 nM antisense oligonucleotide, approx. 24 hours, PKK mRNA by RT-PCR (RTS3454), relative to untreated control cells, Table 25 experiment
[11] = HepaRG cells, electroporation with 1,000 nM antisense oligonucleotide, approx. 24 hours, PKK mRNA by RT-PCR (RTS3454), relative to untreated control cells, Table 26 experiment
[12] = Table 30, human PKK mRNA, HepaRG cells, 1,000 nM antisense oligonucleotide

547801 (eT*eA*k[5mC]*dA*dT*dG*dG*dA*dA*dG*d[5mC]*dT*dA*k[5mC]*kA*eT; antisense) [compound 547801]
% inhibition [1]: 11%

548562 (antisense eA*eG*kA*dT*dG*dA*d[5mC]*d[5mC]*dT*dG*d[5mC]*dA*dG*kA*kT*eG) [compound 548562]
% inhibition [2]: 50%

548526 (antisense e[5mC]*eT*kA*dA*dG*d[5mC]*dT*dG*dT*dG*dT*d[5mC]*dT*k[5mC]*kA*eT) [compound 548526]
% inhibition [3]: 26%

548052 (e[5mC]*eA*kA*dA*dG*dG*dA*dG*d[5mC]*d[5mC]*dT*dG*dG*kA*kG*eT; antisense) [compound 548052]
% inhibition [4]: 43%

548038 (eT*eA*kA*dT*dG*dT*d[5mC]*dT*dG*dA*d[5mC]*dA*dG*kA*kT*eT; antisense) [compound 548038]
% inhibition [4]: 67%

547765 (antisense eA*eG*kG*dT*dG*dA*dG*dT*d[5mC]*dT*d[5mC]*dT*dT*kG*kT*e[5mC]) [compound 547765]
% inhibition [1]: 20%

548031 (eG*eA*kT*dG*d[5mC]*dG*d[5mC]*d[5mC]*dA*dA*dA*d[5mC]*dA*kT*k[5mC]*e[5mC]; antisense) [compound 548031]
% inhibition [4]: 73%

548617 (antisense eG*eA*kT*dT*dG*dG*dT*dG*dG*d[5mC]*dG*dG*dG*kA*kT*e[5mC]) [compound 548617]
% inhibition [5]: 44%

547978 (antisense e[5mC]*eT*kT*dG*dG*d[5mC]*dA*dA*dA*d[5mC]*dA*dT*dT*k[5mC]*kA*e[5mC]) [compound 547978]
% inhibition [6]: 71%

547910 (eA*e[5mC]*k[5mC]*dA*dA*dT*dT*dT*d[5mC]*dT*dG*dA*dA*kA*kG*eG; antisense) [compound 547910]
% inhibition [7]: 26% | % inhibition [8]: 34%

548576 (eT*e[5mC]*kA*dT*dG*dT*dG*dG*d[5mC]*dA*dA*d[5mC]*d[5mC]*kT*kG*eT; antisense) [compound 548576]
% inhibition [2]: 41%

548610 (antisense eG*eG*kA*dT*d[5mC]*dG*dG*dT*dG*dG*dT*dG*dG*kG*kA*eT) [compound 548610]
% inhibition [2]: 2%

547850 (antisense eA*eA*kA*dT*dG*dT*d[5mC]*dT*d[5mC]*dG*dA*dT*dG*kG*k[5mC]*eA) [compound 547850]
% inhibition [7]: 51% | % inhibition [8]: 80%

547809 (eT*e[5mC]*kA*dT*d[5mC]*dT*dG*dG*d[5mC]*dA*dG*dT*dA*kT*kT*eG; antisense) [compound 547809]
% inhibition [1]: 33%

548363 (antisense e[5mC]*eA*kG*d[5mC]*dA*dG*dG*d[5mC]*dT*d[5mC]*dA*dA*dA*kG*kT*eG) [compound 548363]
% inhibition [9]: 37%

548530 (antisense eA*eT*kA*dA*dT*dA*dG*dA*dG*dG*d[5mC]*dA*dG*k[5mC]*k[5mC]*eA) [compound 548530]
% inhibition [3]: 50%

548203 (eT*eG*kA*d[5mC]*dT*dA*dG*dT*dG*dA*dA*dT*dG*kG*k[5mC]*eT; antisense) [compound 548203]
% inhibition [10]: 73%

548020 (eT*e[5mC]*k[5mC]*d[5mC]*d[5mC]*dA*dA*dG*dA*dA*dG*dA*dG*kT*kT*eT; antisense) [compound 548020]
% inhibition [4]: 76%

548045 (eT*eT*kA*dT*dA*dG*dT*dT*dT*dT*dG*dG*dT*kG*kA*eA; antisense) [compound 548045]
% inhibition [4]: 0%

548331 (antisense eA*e[5mC]*kA*dA*dT*d[5mC]*d[5mC]*d[5mC]*dT*dT*dA*dG*d[5mC]*k[5mC]*k[5mC]*eA) [compound 548331]
% inhibition [9]: 73%

548276 (antisense e[5mC]*eA*kG*dA*dG*dT*dG*dT*d[5mC]*dA*dT*d[5mC]*dT*kG*k[5mC]*eG) [compound 548276]
% inhibition [11]: 49%

548650 (antisense e[5mC]*eT*kG*dA*dT*d[5mC]*d[5mC]*d[5mC]*dA*d[5mC]*dT*dT*dG*k[5mC]*k[5mC]*e[5mC]) [compound 548650]
% inhibition [5]: 21%

548600 (eT*eG*kG*dT*dG*dG*dT*dG*dG*dG*dA*dT*dT*kG*kG*eT; antisense) [compound 548600]
% inhibition [2]: 53%

547996 (antisense eT*eG*kT*dG*dT*d[5mC]*d[5mC]*d[5mC]*dA*dT*dA*d[5mC]*dG*k[5mC]*kA*eA) [compound 547996]
% inhibition [6]: 65%

548519 (antisense e[5mC]*e[5mC]*kT*d[5mC]*d[5mC]*d[5mC]*d[5mC]*dT*dT*dG*dT*dG*dT*kG*kT*e[5mC]) [compound 548519]
% inhibition [3]: 31%

548285 (antisense eG*e[5mC]*kT*dT*dA*d[5mC]*dT*dT*dA*d[5mC]*dA*dT*d[5mC]*k[5mC]*k[5mC]*eT) [compound 548285]
% inhibition [11]: 52%

548009 (eG*eT*kT*dA*d[5mC]*dA*d[5mC]*dA*dA*dT*d[5mC]*dT*d[5mC]*kA*kA*eA; antisense) [compound 548009]
% inhibition [4]: 47%

548228 (eG*eT*kT*dG*dT*dG*dT*dG*dG*d[5mC]*d[5mC]*d[5mC]*dT*k[5mC]*kT*eT; antisense) [compound 548228]
% inhibition [11]: 37%

548686 (antisense eA*e[5mC]*kG*dA*d[5mC]*dA*dA*dT*dG*dG*dG*dA*dT*kT*k[5mC]*eA) [compound 548686]
% inhibition [5]: 0%

548627 (antisense e[5mC]*e[5mC]*k[5mC]*dA*d[5mC]*dA*dT*dG*dT*dA*d[5mC]*d[5mC]*dA*k[5mC]*k[5mC]*eG) [compound 548627]
% inhibition [5]: 22%

548187 (e[5mC]*eA*kT*d[5mC]*d[5mC]*dT*dA*dT*d[5mC]*d[5mC]*dG*dT*dG*kT*kT*e[5mC]; antisense) [compound 548187]
% inhibition [10]: 33%

548591 (eG*eT*kA*dA*dG*d[5mC]*d[5mC]*dT*dT*d[5mC]*dA*d[5mC]*dA*kG*kG*eG; antisense) [compound 548591]
% inhibition [2]: 3%

548387 (eT*eG*kA*dA*dG*dG*dG*d[5mC]*dG*dA*dG*dG*d[5mC]*kG*k[5mC]*eA; antisense) [compound 548387]
% inhibition [12]: 22%

548231 (eA*eA*kT*dA*d[5mC]*dT*d[5mC]*dA*dT*dT*dG*dT*dT*kG*kT*eG; antisense) [compound 548231]
% inhibition [11]: 11%

548485 (eG*eT*kG*dA*d[5mC]*d[5mC]*d[5mC]*dA*dA*dG*dG*dG*dT*k[5mC]*kG*eA; antisense) [compound 548485]
% inhibition [3]: 17%

548189 (e[5mC]*eA*kT*dG*dA*dA*d[5mC]*dA*dT*d[5mC]*d[5mC]*dT*dA*kT*k[5mC]*e[5mC]; antisense) [compound 548189]
% inhibition [10]: 24%

547936 (eG*eA*k[5mC]*dT*d[5mC]*dG*dA*dT*dT*dT*dT*d[5mC]*d[5mC]*kA*kT*eA; antisense) [compound 547936]
% inhibition [6]: 44%

547841 (antisense e[5mC]*eA*k[5mC]*dA*dT*dT*dG*d[5mC]*dT*dT*d[5mC]*dA*dA*kG*kG*eA) [compound 547841]
% inhibition [1]: 42%

548639 (antisense eT*eG*kG*dG*dA*dA*dG*dA*dA*dA*d[5mC]*dT*dA*kG*k[5mC]*eA) [compound 548639]
% inhibition [5]: 10%

548439 (antisense e[5mC]*e[5mC]*kT*dA*dT*dA*dT*d[5mC]*dA*d[5mC]*dT*dG*dT*kA*k[5mC]*e[5mC]) [compound 548439]
% inhibition [12]: 46%

548405 (e[5mC]*eG*kG*dA*d[5mC]*d[5mC]*dT*dT*d[5mC]*dA*dT*d[5mC]*dT*kT*k[5mC]*eA; antisense) [compound 548405]
% inhibition [12]: 35%

548642 (antisense eG*e[5mC]*kG*dG*d[5mC]*dA*dG*dT*dA*dG*dT*dG*dA*kA*kT*e[5mC]) [compound 548642]
% inhibition [5]: 23%

547982 (antisense eA*eA*kT*d[5mC]*dA*dT*d[5mC]*dT*dT*dT*dG*dT*dG*k[5mC]*kA*eA) [compound 547982]
% inhibition [6]: 54%

548459 (e[5mC]*eA*kA*d[5mC]*dT*dA*dT*dA*dA*d[5mC]*dA*dG*dT*kA*kT*e[5mC]; antisense) [compound 548459]
% inhibition [3]: 26%

548531 (antisense eG*eT*k[5mC]*dA*dG*dA*dA*dG*dG*d[5mC]*d[5mC]*dT*d[5mC]*kT*kT*eA) [compound 548531]
% inhibition [3]: 21%

548169 (eG*eT*kT*dG*d[5mC]*dG*dA*d[5mC]*d[5mC]*dT*d[5mC]*dG*d[5mC]*kA*kT*eT; antisense) [compound 548169]
% inhibition [10]: 7%

547814 (eG*eG*kG*dT*dG*dG*dA*dA*dT*dG*dT*dG*d[5mC]*kA*k[5mC]*e[5mC]; antisense) [compound 547814]
% inhibition [1]: 60%

548344 (antisense eG*eG*k[5mC]*dA*dA*d[5mC]*dT*dA*dT*dG*dT*dT*d[5mC]*kT*k[5mC]*eA) [compound 548344]
% inhibition [9]: 76%

548670 (antisense eG*eA*kA*dA*dA*dG*d[5mC]*d[5mC]*d[5mC]*dT*d[5mC]*d[5mC]*dG*kA*kG*e[5mC]) [compound 548670]
% inhibition [5]: 15%
